Test results: publication PMC7265341, “Quantifying CDK inhibitor selectivity in live cells” (Nature Communications, 2020)
Where two headings read alike, the source gives them in different places.

Columns and labels:
CDK11B/Cyclin L2 = CDK11B/Cyclin L2 (Homo sapiens, UniProt P21127); assay: NanoBRET live-cell target engagement, CDK11B-NanoLuc/Cyclin L2 in HEK-293; assay type: binding; details: 10µM, read-out: CDK11b/L2 Inhibition at 10µM (%)
CDK8/Cyclin C = CDK8/Cyclin C (Homo sapiens, UniProt P49336); assay: NanoBRET live-cell target engagement, NanoLuc-CDK8/Cyclin C in HEK-293; assay type: binding; details: 10µM, read-out: CDK8/C Inhibition at 10µM (%)
CDK8/Cyclin C, sequence (P49336 whole entry): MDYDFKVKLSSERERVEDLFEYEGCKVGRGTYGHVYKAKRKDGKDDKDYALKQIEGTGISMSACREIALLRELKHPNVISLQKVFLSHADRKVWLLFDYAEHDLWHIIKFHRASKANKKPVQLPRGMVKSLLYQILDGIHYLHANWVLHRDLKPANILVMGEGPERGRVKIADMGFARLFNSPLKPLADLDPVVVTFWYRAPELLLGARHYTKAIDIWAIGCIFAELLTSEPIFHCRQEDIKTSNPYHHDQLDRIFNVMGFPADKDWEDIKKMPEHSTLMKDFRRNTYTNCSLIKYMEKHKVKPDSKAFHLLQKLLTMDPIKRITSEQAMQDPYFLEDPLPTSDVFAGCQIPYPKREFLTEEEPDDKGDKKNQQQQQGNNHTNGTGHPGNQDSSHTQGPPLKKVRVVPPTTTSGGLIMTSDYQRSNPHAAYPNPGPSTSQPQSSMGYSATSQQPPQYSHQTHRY
CDK8/Cyclin C, sequence (P24863 whole entry partner): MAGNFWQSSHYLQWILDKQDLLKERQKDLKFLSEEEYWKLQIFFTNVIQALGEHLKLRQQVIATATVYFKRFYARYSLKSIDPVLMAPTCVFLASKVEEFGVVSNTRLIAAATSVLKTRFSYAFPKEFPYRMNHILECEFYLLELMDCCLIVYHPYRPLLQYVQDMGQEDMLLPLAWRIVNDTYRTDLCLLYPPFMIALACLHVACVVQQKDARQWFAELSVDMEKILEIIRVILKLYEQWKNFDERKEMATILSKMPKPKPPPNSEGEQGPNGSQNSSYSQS

CDK15/Cyclin Y = CDK15/Cyclin Y (Homo sapiens, UniProt Q96Q40); assay: NanoBRET live-cell target engagement, NanoLuc-CDK15/Cyclin Y in HEK-293; assay type: binding; details: 10µM, read-out: CDK15/Y Inhibition at 10µM (%)
CDK15/Cyclin Y, sequence (Q96Q40 whole entry): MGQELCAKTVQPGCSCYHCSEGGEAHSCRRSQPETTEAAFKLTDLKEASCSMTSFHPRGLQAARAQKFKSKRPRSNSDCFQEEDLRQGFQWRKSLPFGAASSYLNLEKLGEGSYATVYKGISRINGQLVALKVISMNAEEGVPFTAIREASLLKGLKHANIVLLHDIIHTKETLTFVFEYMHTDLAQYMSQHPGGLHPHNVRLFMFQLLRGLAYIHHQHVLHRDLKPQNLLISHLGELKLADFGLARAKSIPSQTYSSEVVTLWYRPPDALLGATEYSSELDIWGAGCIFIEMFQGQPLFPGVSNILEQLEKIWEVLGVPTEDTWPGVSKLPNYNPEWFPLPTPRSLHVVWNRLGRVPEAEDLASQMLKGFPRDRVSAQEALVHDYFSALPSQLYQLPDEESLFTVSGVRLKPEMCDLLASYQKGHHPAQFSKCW
CDK15/Cyclin Y, sequence (Q8ND76 whole entry partner): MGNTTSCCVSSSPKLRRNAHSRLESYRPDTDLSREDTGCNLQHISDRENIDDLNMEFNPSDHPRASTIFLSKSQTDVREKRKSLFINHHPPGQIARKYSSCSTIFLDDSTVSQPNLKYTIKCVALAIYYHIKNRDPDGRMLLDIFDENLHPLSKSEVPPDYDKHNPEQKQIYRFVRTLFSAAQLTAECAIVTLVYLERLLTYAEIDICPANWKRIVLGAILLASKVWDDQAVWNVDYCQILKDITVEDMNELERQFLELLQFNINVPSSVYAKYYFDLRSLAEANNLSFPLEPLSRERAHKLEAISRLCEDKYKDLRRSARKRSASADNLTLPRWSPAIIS

CDK5/CDK5R1 = CDK5/CDK5R1 (Homo sapiens, UniProt Q00535); assay: NanoBRET live-cell target engagement, CDK5-NanoLuc/CDK5R1 in HEK-293; assay type: binding; details: 10µM, read-out: CDK5/CDK5R1 Inhibition at 10µM (%)
CDK18/Cyclin Y = CDK18/Cyclin Y (Homo sapiens, UniProt Q07002); assay: NanoBRET live-cell target engagement, CDK18-NanoLuc/Cyclin Y in HEK-293; assay type: binding; details: 10µM, read-out: CDK18/Y Inhibition at 10µM (%)
CDK20/Cyclin H = CDK20/Cyclin H (Homo sapiens, UniProt Q8IZL9); assay: NanoBRET live-cell target engagement, NanoLuc-CDK20/Cyclin H in HEK-293; assay type: binding; details: 10µM, read-out: CDK20/H Inhibition at 10µM (%)
CDK14/Cyclin Y = CDK14/Cyclin Y (Homo sapiens, UniProt O94921); assay: NanoBRET live-cell target engagement, CDK14-NanoLuc/Cyclin Y in HEK-293; assay type: binding; details: 10µM, read-out: CDK14/Y Inhibition at 10µM (%)
CDK4/Cyclin D1 = CDK4/Cyclin D1 (Homo sapiens, UniProt P11802); assay: NanoBRET live-cell target engagement, NanoLuc-CDK4/Cyclin D1 in HEK-293; assay type: binding; details: 10µM, read-out: CDK4/D1 Inhibition at 10µM (%)
CDK4/Cyclin D1, sequence (P11802 whole entry): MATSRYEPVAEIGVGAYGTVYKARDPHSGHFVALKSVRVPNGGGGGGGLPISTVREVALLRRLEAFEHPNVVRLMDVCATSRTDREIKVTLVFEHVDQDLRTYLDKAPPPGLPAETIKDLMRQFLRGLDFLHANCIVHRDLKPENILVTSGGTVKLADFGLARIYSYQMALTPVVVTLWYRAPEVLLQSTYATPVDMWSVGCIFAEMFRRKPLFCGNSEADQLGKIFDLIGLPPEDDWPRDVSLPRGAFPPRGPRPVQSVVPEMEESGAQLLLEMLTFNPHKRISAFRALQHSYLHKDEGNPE
CDK4/Cyclin D1, sequence (P24385 whole entry partner): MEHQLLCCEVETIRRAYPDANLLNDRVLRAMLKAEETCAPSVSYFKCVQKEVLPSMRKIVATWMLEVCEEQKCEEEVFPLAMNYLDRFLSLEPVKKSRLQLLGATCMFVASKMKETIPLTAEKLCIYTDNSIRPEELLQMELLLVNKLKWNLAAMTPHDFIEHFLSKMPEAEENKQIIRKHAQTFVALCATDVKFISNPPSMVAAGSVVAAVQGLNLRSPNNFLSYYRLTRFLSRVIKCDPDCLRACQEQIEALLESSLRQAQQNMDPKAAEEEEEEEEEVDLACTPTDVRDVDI

CDK6/Cyclin D1 = CDK6/Cyclin D1 (Homo sapiens, UniProt Q00534); assay: NanoBRET live-cell target engagement, NanoLuc-CDK6/Cyclin D1 in HEK-293; assay type: binding; details: 10µM, read-out: CDK6/D1 Inhibition at 10µM (%)
CDK6/Cyclin D1, sequence (Q00534 whole entry): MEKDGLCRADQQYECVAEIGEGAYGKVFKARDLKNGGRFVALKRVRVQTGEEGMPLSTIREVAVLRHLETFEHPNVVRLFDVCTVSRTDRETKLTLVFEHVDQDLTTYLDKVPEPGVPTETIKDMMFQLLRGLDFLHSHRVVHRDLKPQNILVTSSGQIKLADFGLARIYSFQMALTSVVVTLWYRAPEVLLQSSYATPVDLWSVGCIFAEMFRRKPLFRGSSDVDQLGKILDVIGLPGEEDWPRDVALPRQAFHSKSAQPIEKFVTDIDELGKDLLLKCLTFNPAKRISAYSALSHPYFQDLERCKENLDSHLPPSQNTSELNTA
CDK6/Cyclin D1, sequence (P24385 whole entry partner): as the sequence (P24385 whole entry partner) above

CDK10/Cyclin L2 = CDK10/Cyclin L2 (Homo sapiens, UniProt Q15131); assay: NanoBRET live-cell target engagement, CDK10-NanoLuc/Cyclin L2 in HEK-293; details: read-out: CDK10/L2 Inhibition at 10µM (%), 10µM
CDK2/Cyclin E1 = CDK2/Cyclin E1 (Homo sapiens, UniProt P24941); assay: NanoBRET live-cell target engagement, CDK2-NanoLuc/Cyclin E1 in HEK-293; assay type: binding; details: 10µM, read-out: CDK2/E1 Inhibition at 10µM (%)
CDK1/Cyclin E1 = CDK1/Cyclin E1 (Homo sapiens, UniProt P06493); assay: NanoBRET live-cell target engagement, CDK1-NanoLuc/Cyclin E1 in HEK-293; assay type: binding; details: 10µM, read-out: CDK1/E1 Inhibition at 10µM (%)
CDK19/Cyclin C = CDK19/Cyclin C (Homo sapiens, UniProt Q9BWU1); assay: NanoBRET live-cell target engagement, NanoLuc-CDK19/Cyclin C in HEK-293; details: read-out: CDK19/C Inhibition at 10µM (%), 10µM
CDK19/Cyclin C, sequence (Q9BWU1 whole entry): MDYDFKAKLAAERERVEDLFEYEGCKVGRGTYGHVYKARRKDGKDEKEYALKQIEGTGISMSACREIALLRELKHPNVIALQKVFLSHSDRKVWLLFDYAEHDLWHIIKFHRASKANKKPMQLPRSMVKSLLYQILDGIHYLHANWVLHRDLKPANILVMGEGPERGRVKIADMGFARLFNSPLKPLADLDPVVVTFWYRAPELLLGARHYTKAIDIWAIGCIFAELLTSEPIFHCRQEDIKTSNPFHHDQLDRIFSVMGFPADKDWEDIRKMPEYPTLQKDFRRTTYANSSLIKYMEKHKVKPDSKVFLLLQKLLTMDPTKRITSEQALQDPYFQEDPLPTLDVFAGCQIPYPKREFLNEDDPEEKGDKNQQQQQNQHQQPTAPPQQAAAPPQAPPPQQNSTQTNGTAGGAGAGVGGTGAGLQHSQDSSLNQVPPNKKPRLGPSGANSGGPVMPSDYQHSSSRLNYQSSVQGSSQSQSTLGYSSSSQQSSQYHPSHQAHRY
CDK19/Cyclin C, sequence (P24863 whole entry partner): as the sequence (P24863 whole entry partner) above

CDK3/Cyclin E1 = CDK3/Cyclin E1 (Homo sapiens, UniProt Q00526); assay: NanoBRET live-cell target engagement, CDK3-NanoLuc/Cyclin E1 in HEK-293; assay type: binding; details: 10µM, read-out: CDK3/E1 Inhibition at 10µM (%)
CDK7 = CDK7 (Homo sapiens, UniProt P50613); assay: NanoBRET live-cell target engagement, NanoLuc-CDK7 in HEK-293; assay type: binding; details: 10µM, read-out: CDK7 Inhibition at 10µM (%)
CDK7, sequence (P50613 whole entry): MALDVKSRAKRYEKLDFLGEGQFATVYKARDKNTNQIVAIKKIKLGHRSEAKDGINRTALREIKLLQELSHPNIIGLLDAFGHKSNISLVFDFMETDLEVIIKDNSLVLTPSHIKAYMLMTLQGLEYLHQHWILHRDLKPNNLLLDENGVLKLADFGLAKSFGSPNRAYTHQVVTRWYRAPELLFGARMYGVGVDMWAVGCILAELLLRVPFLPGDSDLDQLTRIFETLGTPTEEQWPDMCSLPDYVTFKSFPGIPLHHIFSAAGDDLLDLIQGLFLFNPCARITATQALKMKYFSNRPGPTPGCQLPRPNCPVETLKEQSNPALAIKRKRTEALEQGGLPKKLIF

CDK17/Cyclin Y = CDK17/Cyclin Y (Homo sapiens, UniProt Q00537); assay: NanoBRET live-cell target engagement, CDK17-NanoLuc/Cyclin Y in HEK-293; assay type: binding; details: 10µM, read-out: CDK17/Y Inhibition at 10µM (%)
CDK17/Cyclin Y, sequence (Q00537 whole entry): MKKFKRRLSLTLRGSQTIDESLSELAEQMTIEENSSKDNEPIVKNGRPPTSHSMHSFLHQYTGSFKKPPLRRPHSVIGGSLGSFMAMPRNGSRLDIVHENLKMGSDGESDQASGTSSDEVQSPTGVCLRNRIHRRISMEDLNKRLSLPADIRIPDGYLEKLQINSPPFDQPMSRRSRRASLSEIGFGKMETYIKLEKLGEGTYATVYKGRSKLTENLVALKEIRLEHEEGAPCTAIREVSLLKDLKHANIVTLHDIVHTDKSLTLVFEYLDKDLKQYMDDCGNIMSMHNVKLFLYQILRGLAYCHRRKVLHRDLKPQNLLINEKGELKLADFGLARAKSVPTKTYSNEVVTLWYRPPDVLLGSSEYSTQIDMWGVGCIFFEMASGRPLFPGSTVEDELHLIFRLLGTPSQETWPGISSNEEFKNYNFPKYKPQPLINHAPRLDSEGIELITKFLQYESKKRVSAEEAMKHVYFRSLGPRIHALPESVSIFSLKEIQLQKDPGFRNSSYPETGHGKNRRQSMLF
CDK17/Cyclin Y, sequence (Q8ND76 whole entry partner): as the sequence (Q8ND76 whole entry partner) above

CDK13/Cyclin K = CDK13/Cyclin K (Homo sapiens, UniProt Q14004); assay: NanoBRET live-cell target engagement, CDK13-NanoLuc/Cyclin K in HEK-293; assay type: binding; details: 10µM, read-out: CDK13/K Inhibition at 10µM (%)
CDK12/Cyclin K = CDK12/Cyclin K (Homo sapiens, UniProt Q9NYV4); assay: NanoBRET live-cell target engagement, CDK12-NanoLuc/Cyclin K in HEK-293; assay type: binding; details: 10µM, read-out: CDK12/K Inhibition at 10µM (%)
CDK9/Cyclin K = CDK9/Cyclin K (Homo sapiens, UniProt P50750); assay: NanoBRET live-cell target engagement, NanoLuc-CDK9/Cyclin K in HEK-293; assay type: binding; details: 10µM, read-out: CDK9/K Inhibition at 10µM (%)
CDK16/Cyclin Y = CDK16/Cyclin Y (Homo sapiens, UniProt Q00536); assay: NanoBRET live-cell target engagement, CDK16-NanoLuc/Cyclin Y in HEK-293; assay type: binding; details: 10µM, read-out: CDK16/Y Inhibition at 10µM (%)

CDK11B/Cyclin L2, sequence (P21127 1-782 isoform P21127-2): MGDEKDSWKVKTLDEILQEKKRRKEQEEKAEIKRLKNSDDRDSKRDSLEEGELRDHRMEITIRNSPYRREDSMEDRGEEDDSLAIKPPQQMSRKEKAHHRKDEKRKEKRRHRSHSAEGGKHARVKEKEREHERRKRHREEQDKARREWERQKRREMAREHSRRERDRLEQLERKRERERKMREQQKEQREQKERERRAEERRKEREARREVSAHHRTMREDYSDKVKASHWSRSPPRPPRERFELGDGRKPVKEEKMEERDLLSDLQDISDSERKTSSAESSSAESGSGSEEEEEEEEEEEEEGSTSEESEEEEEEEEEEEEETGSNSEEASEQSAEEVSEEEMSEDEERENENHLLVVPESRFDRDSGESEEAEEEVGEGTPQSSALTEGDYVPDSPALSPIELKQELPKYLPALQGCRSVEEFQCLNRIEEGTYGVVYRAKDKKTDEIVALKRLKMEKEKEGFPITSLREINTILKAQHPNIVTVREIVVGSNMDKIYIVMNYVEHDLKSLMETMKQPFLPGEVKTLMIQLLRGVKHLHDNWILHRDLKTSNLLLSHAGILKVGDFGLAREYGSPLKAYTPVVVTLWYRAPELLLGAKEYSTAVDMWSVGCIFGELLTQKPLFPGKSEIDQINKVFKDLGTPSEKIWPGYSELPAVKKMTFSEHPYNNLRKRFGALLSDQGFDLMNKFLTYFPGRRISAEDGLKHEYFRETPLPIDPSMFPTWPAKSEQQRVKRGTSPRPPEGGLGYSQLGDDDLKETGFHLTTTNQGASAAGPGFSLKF

CC(C)[C@H](CO)Nc1nc(Nc2ccc(C(=O)O)c(Cl)c2)c2ncn(C(C)C)c2n1 [Purvalanol B]
inhibition at 10 µM (CDK11B/Cyclin L2; average of experiments): 3.9% | inhibition at 10 µM (CDK11B/Cyclin L2; independent experiment 1): 7.1% | inhibition at 10 µM (CDK11B/Cyclin L2; independent experiment 2): 0.8% | inhibition at 10 µM (CDK8/Cyclin C; average of experiments): 1.6% | inhibition at 10 µM (CDK8/Cyclin C; independent experiment 1): 3.2% | inhibition at 10 µM (CDK8/Cyclin C; independent experiment 2): -0.0599% | inhibition at 10 µM (CDK15/Cyclin Y; average of experiments): 0.0365% | inhibition at 10 µM (CDK15/Cyclin Y; independent experiment 1): 4.9% | inhibition at 10 µM (CDK15/Cyclin Y; independent experiment 2): -4.9% | inhibition at 10 µM (CDK5/CDK5R1; average of experiments): 63.7% | inhibition at 10 µM (CDK5/CDK5R1; independent experiment 1): 36.3% | inhibition at 10 µM (CDK5/CDK5R1; independent experiment 2): 91% | inhibition at 10 µM (CDK18/Cyclin Y; average of experiments): 5.4% | inhibition at 10 µM (CDK18/Cyclin Y; independent experiment 1): -4.7% | inhibition at 10 µM (CDK18/Cyclin Y; independent experiment 2): 15.4% | inhibition at 10 µM (CDK20/Cyclin H; independent experiment 1): -3.3% | inhibition at 10 µM (CDK20/Cyclin H; independent experiment 2): -1.2% | inhibition at 10 µM (CDK14/Cyclin Y; average of experiments): -0.116% | inhibition at 10 µM (CDK14/Cyclin Y; independent experiment 1): -3.3% | inhibition at 10 µM (CDK14/Cyclin Y; independent experiment 2): 3.1% | inhibition at 10 µM (CDK4/Cyclin D1; average of experiments): -37.2% | inhibition at 10 µM (CDK4/Cyclin D1; independent experiment 1): 8.3% | inhibition at 10 µM (CDK4/Cyclin D1; independent experiment 2): -82.7% | inhibition at 10 µM (CDK6/Cyclin D1; average of experiments): -0.5% | inhibition at 10 µM (CDK6/Cyclin D1; independent experiment 1): 5.9% | inhibition at 10 µM (CDK6/Cyclin D1; independent experiment 2): -7% | inhibition at 10 µM (CDK10/Cyclin L2; average of experiments): -1.9% | inhibition at 10 µM (CDK10/Cyclin L2; independent experiment 1): -2.4% | inhibition at 10 µM (CDK10/Cyclin L2; independent experiment 2): -1.5% | inhibition at 10 µM (CDK2/Cyclin E1; average of experiments): 66.9% | inhibition at 10 µM (CDK2/Cyclin E1; independent experiment 1): 79.7% | inhibition at 10 µM (CDK2/Cyclin E1; independent experiment 2): 54% | inhibition at 10 µM (CDK1/Cyclin E1; average of experiments): 21.2% | inhibition at 10 µM (CDK1/Cyclin E1; independent experiment 1): 18.1% | inhibition at 10 µM (CDK1/Cyclin E1; independent experiment 2): 24.3% | inhibition at 10 µM (CDK19/Cyclin C; average of experiments): 8% | inhibition at 10 µM (CDK19/Cyclin C; independent experiment 1): 12.7% | inhibition at 10 µM (CDK19/Cyclin C; independent experiment 2): 3.4% | inhibition at 10 µM (CDK3/Cyclin E1; average of experiments): 39.4% | inhibition at 10 µM (CDK3/Cyclin E1; independent experiment 1): 41.5% | inhibition at 10 µM (CDK3/Cyclin E1; independent experiment 2): 37.2% | inhibition at 10 µM (CDK7; average of experiments): -0.0779% | inhibition at 10 µM (CDK7; independent experiment 1): -0.361% | inhibition at 10 µM (CDK7; independent experiment 2): 0.2% | inhibition at 10 µM (CDK17/Cyclin Y; average of experiments): 2.5% | inhibition at 10 µM (CDK17/Cyclin Y; independent experiment 1): 0.32% | inhibition at 10 µM (CDK17/Cyclin Y; independent experiment 2): 4.7% | inhibition at 10 µM (CDK13/Cyclin K; average of experiments): 2.3% | inhibition at 10 µM (CDK13/Cyclin K; independent experiment 1): 3% | inhibition at 10 µM (CDK13/Cyclin K; independent experiment 2): 1.7% | inhibition at 10 µM (CDK12/Cyclin K; average of experiments): 1.7% | inhibition at 10 µM (CDK12/Cyclin K; independent experiment 1): 4.5% | inhibition at 10 µM (CDK12/Cyclin K; independent experiment 2): -1.1% | inhibition at 10 µM (CDK9/Cyclin K; average of experiments): 8.4% | inhibition at 10 µM (CDK9/Cyclin K; independent experiment 1): -0.3% | inhibition at 10 µM (CDK9/Cyclin K; independent experiment 2): 17.1% | inhibition at 10 µM (CDK16/Cyclin Y; independent experiment 1): 11.3% | inhibition at 10 µM (CDK16/Cyclin Y; independent experiment 2): -5.5%
